Measurements as given in PubChem BioAssay (NCI).
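Interpolation was linear, between the two tested concentrations surrounding the appropriate level; five concentrations were tested over 48 hours in 96-well plates. Abbreviation: GI50, concentration required for 50% inhibition of growth. TGI: concentration producing complete growth inhibition.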

Key:
Experiment in all cases: inhibition of tumour cell growth, NCI panel, 48 h
A549 NSCLC = tested on: A549 NSCLC
ACHN renal = tested on: ACHN renal
CAKI-1 renal = tested on: CAKI-1 renal
CCRF-CEM leukemia = tested on: CCRF-CEM leukemia
COLO 205 colon = tested on: COLO 205 colon
DLD-1 colon = tested on: DLD-1 colon
DMS 114 small cell lung = tested on: DMS 114 small cell lung
DMS 273 small cell lung = tested on: DMS 273 small cell lung
EKVX NSCLC = tested on: EKVX NSCLC
HCC-2998 colon = tested on: HCC-2998 colon
HCT-116 colon = tested on: HCT-116 colon
HCT-15 colon = tested on: HCT-15 colon
HOP-18 NSCLC = tested on: HOP-18 NSCLC
HOP-62 NSCLC = tested on: HOP-62 NSCLC
HOP-92 NSCLC = tested on: HOP-92 NSCLC
HT29 colon = tested on: HT29 colon
IGROV1 ovarian = tested on: IGROV1 ovarian
K-562 leukemia = tested on: K-562 leukemia
KM12 colon = tested on: KM12 colon
KM20L2 colon = tested on: KM20L2 colon
LOX IMVI melanoma = tested on: LOX IMVI melanoma
LXFL 529 NSCLC = tested on: LXFL 529 NSCLC
M14 melanoma = tested on: M14 melanoma
M19-MEL melanoma = tested on: M19-MEL melanoma
MALME-3M melanoma = tested on: MALME-3M melanoma
MOLT-4 leukemia = tested on: MOLT-4 leukemia
NCI-H226 lung = tested on: NCI-H226 lung
NCI-H23 lung = tested on: NCI-H23 lung
NCI-H460 lung = tested on: NCI-H460 lung
NCI-H522 lung = tested on: NCI-H522 lung
OVCAR-3 ovarian = tested on: OVCAR-3 ovarian
OVCAR-4 ovarian = tested on: OVCAR-4 ovarian
OVCAR-5 ovarian = tested on: OVCAR-5 ovarian
OVCAR-8 ovarian = tested on: OVCAR-8 ovarian
RPMI-8226 leukemia = tested on: RPMI-8226 leukemia
RXF 393 renal = tested on: RXF 393 renal
SF-268 CNS = tested on: SF-268 CNS
SF-539 CNS = tested on: SF-539 CNS
SK-MEL-2 melanoma = tested on: SK-MEL-2 melanoma
SK-MEL-28 melanoma = tested on: SK-MEL-28 melanoma
SK-OV-3 ovarian = tested on: SK-OV-3 ovarian
SN12C renal = tested on: SN12C renal
SNB-19 CNS = tested on: SNB-19 CNS
SR leukemia = tested on: SR leukemia
SW-620 colon = tested on: SW-620 colon
TK-10 renal = tested on: TK-10 renal
U251 CNS = tested on: U251 CNS
UACC-62 melanoma = tested on: UACC-62 melanoma
UO-31 renal = tested on: UO-31 renal
XF 498 CNS = tested on: XF 498 CNS

## C[CH2][Ge]([CH2]C)([CH2]C)[O]C(=O)CCC(=O)[O][Ge]([CH2]C)([CH2]C)[CH2]C
A549 NSCLC
  GI50: 68.5 µM
  TGI: > 100 µM
ACHN renal
  GI50: > 100 µM
  TGI: > 100 µM
CAKI-1 renal
  GI50: > 100 µM
  TGI: > 100 µM
CCRF-CEM leukemia
  GI50: 23.7 µM
  TGI: > 100 µM
COLO 205 colon
  GI50: > 100 µM
  TGI: > 100 µM
DLD-1 colon
  GI50: 38.7 µM
  TGI: > 100 µM
DMS 114 small cell lung
  GI50: 38.9 µM
  TGI: > 100 µM
DMS 273 small cell lung
  GI50: 85.9 µM
  TGI: > 100 µM
EKVX NSCLC
  GI50: 20.5 µM
  TGI: > 100 µM
HCC-2998 colon
  GI50: 90.9 µM
  TGI: > 100 µM
HCT-116 colon
  GI50: 57.3 µM
  TGI: > 100 µM
HCT-15 colon
  GI50: 48.4 µM
  TGI: > 100 µM
HOP-18 NSCLC
  GI50: > 100 µM
  TGI: > 100 µM
HOP-62 NSCLC
  GI50: > 100 µM
  TGI: > 100 µM
HOP-92 NSCLC
  GI50: 16.2 µM
  TGI: > 100 µM
HT29 colon
  GI50: 40.2 µM
  TGI: > 100 µM
IGROV1 ovarian
  GI50: > 100 µM
  TGI: > 100 µM
K-562 leukemia
  GI50: 29.6 µM
  TGI: > 100 µM
KM12 colon
  GI50: 55.2 µM
  TGI: > 100 µM
KM20L2 colon
  GI50: > 100 µM
  TGI: > 100 µM
LOX IMVI melanoma
  GI50: 58 µM
  TGI: > 100 µM
LXFL 529 NSCLC
  GI50: 42.5 µM
  TGI: > 100 µM
M14 melanoma
  GI50: > 100 µM
  TGI: > 100 µM
M19-MEL melanoma
  GI50: > 100 µM
  TGI: > 100 µM
MALME-3M melanoma
  GI50: 79.3 µM
  TGI: > 100 µM
MOLT-4 leukemia
  GI50: 39 µM
  TGI: > 100 µM
NCI-H226 lung
  GI50: > 100 µM
  TGI: > 100 µM
NCI-H23 lung
  GI50: 39.7 µM
  TGI: > 100 µM
NCI-H460 lung
  GI50: 24.8 µM
  TGI: > 100 µM
NCI-H522 lung
  GI50: 45.2 µM
  TGI: > 100 µM
OVCAR-3 ovarian
  GI50: 66 µM
  TGI: > 100 µM
OVCAR-4 ovarian
  GI50: > 100 µM
  TGI: > 100 µM
OVCAR-5 ovarian
  GI50: > 100 µM
  TGI: > 100 µM
OVCAR-8 ovarian
  GI50: 34.7 µM
  TGI: > 100 µM
RPMI-8226 leukemia
  GI50: 0.249 µM
  TGI: > 100 µM
RXF 393 renal
  GI50: > 100 µM
  TGI: > 100 µM
SF-268 CNS
  GI50: > 100 µM
  TGI: > 100 µM
SF-539 CNS
  GI50: > 100 µM
  TGI: > 100 µM
SK-MEL-2 melanoma
  GI50: > 100 µM
  TGI: > 100 µM
SK-MEL-28 melanoma
  GI50: > 100 µM
  TGI: > 100 µM
SK-OV-3 ovarian
  GI50: > 100 µM
  TGI: > 100 µM
SN12C renal
  GI50: > 100 µM
  TGI: > 100 µM
SNB-19 CNS
  GI50: > 100 µM
  TGI: > 100 µM
SR leukemia
  GI50: 40.3 µM
  TGI: > 100 µM
SW-620 colon
  GI50: > 100 µM
  TGI: > 100 µM
TK-10 renal
  GI50: > 100 µM
  TGI: > 100 µM
U251 CNS
  GI50: 43.3 µM
  TGI: > 100 µM
UACC-62 melanoma
  GI50: > 100 µM
  TGI: > 100 µM
UO-31 renal
  GI50: 87.5 µM
  TGI: > 100 µM
XF 498 CNS
  GI50: > 100 µM
  TGI: > 100 µM
